Assay: Stability of the crystal form on stirring as suspension in solvent (40° C., 2 days)
Type: physicochemical
Conditions: stirring in methanol at 40° C. for 2 days
Procedure, shortened: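 Suspensions of compound in acetonitrile-water (1:1), ethyl acetate, methanol or ethanol stirred in the dark at 40° C. for 2 days, centrifuged, solids vacuum-dried at 30° C. overnight (room temperature for formula (II)). Some samples first dissolved under ultrasound and partly evaporated. Resulting crystal form identified by XRPD, with DSC and TGA.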

stability in the methanol solution	Structure (SMILES)
substantially high stability	C=CC(=O)N[C@H]1COC[C@H]1Nc1ncc(/C=C(\F)c2c(Cl)c(OC)cc(OC)c2Cl)cn1.CS(=O)(=O)O [Crystal Form E]
substantially high stability	C=CC(=O)N[C@H]1COC[C@H]1Nc1ncc(/C=C(\F)c2c(Cl)c(OC)cc(OC)c2Cl)cn1 [Crystal Form B]

From patent publication US11440903B2, “Salt form and crystal form of compound as FGFR4 inhibitor and preparation method thereof” (GUANGDONG ZHONGSHENG PHARMACEUTICAL CO., LTD, priority 2017, dated 2022)
